Results on 3 compounds are retold here after patent US4065616A, “Processes for production of a 1-N-(α-hydroxy-.PHI.-amino alkanoyl)-3-deoxy-5-O-pentafuranosyl neamine and new compounds produced by the same processes” (Zaidan Hojin Biseibutsu Kagaku Kenkyu Kai, priority 1975, dated 1977).

SMILES strings stand for the structures. Values after ≈ are worked out from the molar mass of the structure shown.

For assay [1] the following is noted: clinical tests, in words; cited from earlier work.
The test system of assay [2] is kanamycin-resistant bacteria. Particulars: in words, prior work; cited from earlier work.
The subject of another assay is Bacillus subtilis B-558. Nature of the assay: M.I.C. by standard serial dilution method. The assay is classed as cell-based. Particulars: B558, B. subtilis B-558, nutrient agar, 37° C, 18 hours, read-out: minimum inhibitory concentration (M.I.C.). On the procedure:
(§1) These particular compounds, that is, 1-n-(α-hydroxy-ω-aminoalkanoyl)-3'-deoxy-5-O-pentofuranosylneamines according to the aforesaid general formula (I) have useful antibacterial activity against a wide variety of bacteria, including gram-negative bacteria and gram-positive bacteria. The minimum inhibitory concentration (M.I.C.) (mcg/ml) of these compounds against various organisms was determined by a standard serial dilution method at an incubation temperature of 37° C, the estimation being made after 18 hours incubation or each test organism, except that the incubation time was 48 hours for Mycobacterium smegmatis. The incubation medium used was nutrient agar.

Assay [3] relates to Pseudomonas aeruginosa 99. Description: M.I.C. by standard serial dilution method. Type of assay: cell-based. The conditions noted are these: P. aeruginosa 99, nutrient agar, 37° C, 18 hours, read-out: minimum inhibitory concentration (M.I.C.). How it is done:
as §1

In assay [4] the test system is Mycobacterium smegmatis ATCC 607. Nature of the assay: M.I.C. by standard serial dilution method. Particulars: Mycolicibacterium smegmatis, ATCC607, nutrient agar, 37° C, 48 hours, read-out: minimum inhibitory concentration (M.I.C.). Type of assay: cell-based. How it is done:
as §1

Assay [5] deals with Escherichia coli K-12 ML 1410 R81. Description: M.I.C. by standard serial dilution method. Type of assay: cell-based. Particulars: 18 h, read-out: minimum inhibitory concentration (M.I.C.). On the procedure: as §1
For a further assay, the system named is Sarcina lutea PCl 1001. Nature of the assay: M.I.C. by standard serial dilution method. The assay is classed as cell-based. The conditions noted are these: Micrococcus luteus, PCL1001, nutrient agar, 37° C, 18 hours, read-out: minimum inhibitory concentration (M.I.C.). How it is done: as §1
In assay [6] the test system is Escherichia coli K-12 ML 1629. Description: M.I.C. by standard serial dilution method. Type of assay: cell-based. The conditions noted are these: K12ML1629, E. coli K-12 ML 1629, nutrient agar, 37° C, 18 hours, read-out: minimum inhibitory concentration (M.I.C.). How it is done:
as §1

Assay [7] concerns Pseudomonas aeruginosa No. 12. Description: M.I.C. by standard serial dilution method. The assay is classed as cell-based. The conditions noted are these: P. aeruginosa No. 12, nutrient agar, 37° C, 18 hours, read-out: minimum inhibitory concentration (M.I.C.). How it is done: as §1
For assay [8], the system named is Pseudomonas aeruginosa TI-13. Nature of the assay: M.I.C. by standard serial dilution method. The assay is classed as cell-based. Particulars: TI13, P. aeruginosa TI-13, nutrient agar, 37° C, 18 hours, read-out: minimum inhibitory concentration (M.I.C.). On the procedure:
as §1

A further assay deals with Escherichia coli NIHJ. Description: M.I.C. by standard serial dilution method. The assay is classed as cell-based. Particulars: E. coli NIHJ, nutrient agar, 37° C, 18 hours, read-out: minimum inhibitory concentration (M.I.C.). How it is done: as §1
In assay [9] the test system is Escherichia coli K-12 W677. Description: M.I.C. by standard serial dilution method. Type of assay: cell-based. Particulars: K12W677, E. coli K-12 W677, nutrient agar, 37° C, 18 hours, read-out: minimum inhibitory concentration (M.I.C.). On the procedure: as §1
The test system of assay [10] is Escherichia coli K-12 LA 290 R55. Description: M.I.C. by standard serial dilution method. Particulars: K12LA290R55, 18 h, read-out: minimum inhibitory concentration (M.I.C.). The assay is classed as cell-based. How it is done: as §1
For assay [11], the system named is Staphylococcus aureus FDA 209P. Nature of the assay: M.I.C. by standard serial dilution method. The assay is classed as cell-based. The conditions noted are these: FDA209P, S. aureus FDA 209P, nutrient agar, 37° C, 18 hours, read-out: minimum inhibitory concentration (M.I.C.). On the procedure:
as §1

The test system of assay [12] is Klebsiella pneumoniae Type 22, No. 3038. Description: M.I.C. by standard serial dilution method. Type of assay: cell-based. Particulars: K. pneumoniae Type 22, No. 3038, nutrient agar, 37° C, 18 hours, read-out: minimum inhibitory concentration (M.I.C.). On the procedure: as §1
In assay [13] the test system is Escherichia coli K-12 JR66/W677. Description: M.I.C. by standard serial dilution method. The conditions noted are these: K12JR66/W677, 18 h, read-out: minimum inhibitory concentration (M.I.C.). Type of assay: cell-based. On the procedure:
as §1

For assay [14], the system named is Klebsiella pneumoniae PCI 602. Nature of the assay: M.I.C. by standard serial dilution method. Particulars: PCI602, K. pneumoniae PCI 602, nutrient agar, 37° C, 18 hours, read-out: minimum inhibitory concentration (M.I.C.). Type of assay: cell-based. On the procedure: as §1
The subject of assay [15] is Escherichia coli K-12 LA 290 R56. Nature of the assay: M.I.C. by standard serial dilution method. Type of assay: cell-based. Particulars: K12LA290R56, 18 h, read-out: minimum inhibitory concentration (M.I.C.). How it is done:
as §1

The test system of another assay is Proteus rettgeri GN 311. Nature of the assay: M.I.C. by standard serial dilution method. Particulars: Providencia rettgeri, GN311, nutrient agar, 37° C, 18 hours, read-out: minimum inhibitory concentration (M.I.C.). The assay is classed as cell-based. How it is done:
as §1

The subject of assay [16] is Escherichia coli K-12 ML 1630. Description: M.I.C. by standard serial dilution method. Type of assay: cell-based. Particulars: K12ML1630, E. coli K-12 ML 1630, nutrient agar, 37° C, 18 hours, read-out: minimum inhibitory concentration (M.I.C.). How it is done: as §1
A further assay concerns Salmonella typhosa T-63. Nature of the assay: M.I.C. by standard serial dilution method. The assay is classed as cell-based. Particulars: Salmonella enterica, 18 h, read-out: minimum inhibitory concentration (M.I.C.). On the procedure:
as §1

In assay [17] the test system is Escherichia coli K-12 LA 290 R64. Nature of the assay: M.I.C. by standard serial dilution method. Type of assay: cell-based. The conditions noted are these: K12LA290R64, 18 h, read-out: minimum inhibitory concentration (M.I.C.). How it is done: as §1
For the next assay, the system named is Escherichia coli K-12. Nature of the assay: M.I.C. by standard serial dilution method. The assay is classed as cell-based. Particulars: K12, E. coli K-12, nutrient agar, 37° C, 18 hours, read-out: minimum inhibitory concentration (M.I.C.). How it is done:
as §1

Assay [18] deals with Escherichia coli K-12 ML 1410. Nature of the assay: M.I.C. by standard serial dilution method. Type of assay: cell-based. Particulars: K12ML1410, E. coli K-12 ML 1410, nutrient agar, 37° C, 18 hours, read-out: minimum inhibitory concentration (M.I.C.). On the procedure:
as §1

The test system of assay [19] is Pseudomonas aeruginosa A3. Nature of the assay: M.I.C. by standard serial dilution method. Particulars: P. aeruginosa A3, nutrient agar, 37° C, 18 hours, read-out: minimum inhibitory concentration (M.I.C.). Type of assay: cell-based. How it is done:
as §1

For a further assay, the system named is Proteus rettgeri GN 466. Description: M.I.C. by standard serial dilution method. The assay is classed as cell-based. The conditions noted are these: Providencia rettgeri, GN466; Proteus rettgeri GN 466; nutrient agar, 37° C, 18 hours; read-out: minimum inhibitory concentration (M.I.C.). On the procedure: as §1
The subject of assay [20] is Pseudomonas aeruginosa GN 315. Description: M.I.C. by standard serial dilution method. Type of assay: cell-based. Particulars: GN315, P. aeruginosa GN 315, nutrient agar, 37° C, 18 hours, read-out: minimum inhibitory concentration (M.I.C.). How it is done:
as §1

Consider `NC[C@@H]1CC[C@@H](N)[C@@H](O[C@H]2[C@H](O)[C@@H](O[C@H]3O[C@H](CO)[C@@H](O)[C@H](N)[C@H]3O)[C@H](N)C[C@@H]2N)O1` [DKB, 3',4'-dideoxykanamycin B], for which the clinical usefulness entry in assay [1] was “very useful and effective semi-synthetic antibiotic in clinical tests”. In assay [2], the “antibacterial activity against resistant bacteria” value was “high antibacterial activity against the above-mentioned resistant bacteria”.
In the case of `NCC[C@H](O)C(=O)N[C@@H]1C[C@H](N)[C@@H](O[C@H]2O[C@H](CN)[C@@H](O)C[C@H]2N)[C@H](O[C@@H]2O[C@H](CN)[C@H](O)[C@H]2O)[C@H]1O` [compound 4, 1-N-((S)-4-amino-2-hydroxybutyryl)-5-O-(5-amino-5-deoxy-β-D-xylofuranosyl)-3'-doxyneamine], the MIC in the assay on Bacillus subtilis B-558 is 0.2 µg/mL (≈ 0.371 µM); in assay [3] it was 3.12 µg/mL (≈ 5.79 µM); in [4] it was 0.2 µg/mL (≈ 0.371 µM); in assay [5], 0.78 µg/mL (≈ 1.45 µM); in the assay with Sarcina lutea PCl 1001 it was 3.12 µg/mL (≈ 5.79 µM); in [6] it was 0.39 µg/mL (≈ 0.724 µM). Further, the MIC in [7] was 3.12 µg/mL (≈ 5.79 µM); in assay [8] it was 3.12 µg/mL (≈ 5.79 µM); in the assay on Escherichia coli NIHJ it was 0.2 µg/mL (≈ 0.371 µM); in assay [9] it was 0.39 µg/mL (≈ 0.724 µM); in [10] it was 0.39 µg/mL (≈ 0.724 µM); in assay [11] it was 0.39 µg/mL (≈ 0.724 µM). Also, the MIC in assay [12] worked out at 0.39 µg/mL (≈ 0.724 µM); in [13], 0.2 µg/mL (≈ 0.371 µM); in assay [14], 0.39 µg/mL (≈ 0.724 µM); in assay [15], 0.78 µg/mL (≈ 1.45 µM); in the assay with Proteus rettgeri GN 311, 3.12 µg/mL (≈ 5.79 µM); in assay [16], 0.78 µg/mL (≈ 1.45 µM). The MIC worked out at 0.2 µg/mL (≈ 0.371 µM) in the assay on Salmonella typhosa T-63; 0.39 µg/mL (≈ 0.724 µM) in [17]; 0.2 µg/mL (≈ 0.371 µM) in the assay on Escherichia coli K-12; 0.78 µg/mL (≈ 1.45 µM) in assay [18]; 0.39 µg/mL (≈ 0.724 µM) in [19]; 0.78 µg/mL (≈ 1.45 µM) in the assay on Proteus rettgeri GN 466. Further, the MIC in assay [20] is over 100 µg/mL.
For `NCC[C@H](O)C(=O)N[C@@H]1C[C@H](N)[C@@H](O[C@H]2O[C@H](CN)[C@@H](O)C[C@H]2N)[C@H](O[C@@H]2O[C@H](CO)[C@H](O)[C@H]2O)[C@H]1O` [compound 6, 1-N-((S)-4-amino-2-hydroxybutyryl)-3'-deoxy-5-O-β-D-xylofuranosylneamine], the MIC with Bacillus subtilis B-558 turned out to be 0.2 µg/mL (≈ 0.371 µM); in assay [3], 12.5 µg/mL (≈ 23.2 µM); in assay [4], 0.2 µg/mL (≈ 0.371 µM); in assay [5] it was 1.56 µg/mL (≈ 2.89 µM); in the assay on Sarcina lutea PCl 1001, 25 µg/mL (≈ 46.3 µM); in [6] it was 0.39 µg/mL (≈ 0.723 µM). Also, the MIC in assay [7] amounted to 25 µg/mL (≈ 46.3 µM); in assay [8], 25 µg/mL (≈ 46.3 µM); with Escherichia coli NIHJ, 0.78 µg/mL (≈ 1.45 µM); in [9], 0.39 µg/mL (≈ 0.723 µM); in assay [10] it was 0.78 µg/mL (≈ 1.45 µM); in assay [11], 0.39 µg/mL (≈ 0.723 µM). Also, the MIC in assay [12] came out at 0.39 µg/mL (≈ 0.723 µM); in assay [13] it was 0.39 µg/mL (≈ 0.723 µM); in [14] it was 0.39 µg/mL (≈ 0.723 µM); in [15], 0.39 µg/mL (≈ 0.723 µM); with Proteus rettgeri GN 311, 3.12 µg/mL (≈ 5.78 µM); in [16], 0.78 µg/mL (≈ 1.45 µM). Moreover, the MIC in the assay with Salmonella typhosa T-63 is 0.78 µg/mL (≈ 1.45 µM); in assay [17], 0.2 µg/mL (≈ 0.371 µM); with Escherichia coli K-12, 0.39 µg/mL (≈ 0.723 µM); in assay [18] it was 1.56 µg/mL (≈ 2.89 µM); in [19], 3.12 µg/mL (≈ 5.78 µM); in the assay on Proteus rettgeri GN 466, 0.78 µg/mL (≈ 1.45 µM). For the same compound, the MIC in [20] was over 100 µg/mL.
